As a reminder, the inhibition is the relative decrease from the control value, in per cent.

The source of these data is US20260116867A1, “PROTEOLYSIS TARGETING CHIMERAS FOR HUMAN PREGNANE X RECEPTOR AND FOR DEGRADATION OF GSPT1” (ST. JUDE CHILDREN'S RESEARCH HOSPITAL, priority 2022, published 2026).

Test [1] deals with T1, PXR (Homo sapiens, UniProt O75469).
T1 sequence (O75469 1-434): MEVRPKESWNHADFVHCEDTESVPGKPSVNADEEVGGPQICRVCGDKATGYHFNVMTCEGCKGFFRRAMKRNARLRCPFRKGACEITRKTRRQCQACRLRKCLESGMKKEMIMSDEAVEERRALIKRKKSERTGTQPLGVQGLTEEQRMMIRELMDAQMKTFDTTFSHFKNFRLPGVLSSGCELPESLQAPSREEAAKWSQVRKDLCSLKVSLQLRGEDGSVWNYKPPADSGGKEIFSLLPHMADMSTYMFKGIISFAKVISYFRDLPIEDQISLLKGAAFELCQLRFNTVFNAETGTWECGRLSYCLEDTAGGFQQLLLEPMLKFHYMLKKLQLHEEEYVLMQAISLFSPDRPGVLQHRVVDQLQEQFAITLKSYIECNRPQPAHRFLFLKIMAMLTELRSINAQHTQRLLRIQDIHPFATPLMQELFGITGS
Put plainly: hPXR binding assay. Particulars: for inhibition at 10 µM: read-out: Binding (% inhibition at 10 μM).

In test [2] the target is T1, PXR. The test can be described thus: cell-based hPXR inverse agonistic assay. The note with it: for inhibition at 10 µM: read-out: Inverse agonist (% inhibition at 10 μM); for IC50: read-out: Inverse agonist (IC50/μM).
Test [3] deals with T1, PXR. Put plainly: cell-based hPXR antagonistic assay. Particulars: for inhibition at 10 µM: read-out: Antagonist (% inhibition at 10 μM); for IC50: read-out: Antagonist (IC50/μM).

As for `COc1ccc(OC)c(-n2nnc(C(=O)Nc3cc(OCCOCCOCCOCCOCCOCCN4C(=O)CCC(N5C(=O)c6cccc(N)c6C5=O)C4=O)cc(C(C)(C)C)c3)c2C)c1` (centres unmarked) [Compound N7, N-(3-((17-(3-(4-amino-1,3-dioxoisoindolin-2-yl)-2,6-dioxopiperidin-1-yl)-3,6,9,12,15-pentaoxaheptadecyl)oxy)-5-(tert-butyl)phenyl)-1-(2,5-dimethoxyphenyl)-5-methyl-1H-1,2,3-triazole-4-carboxamide], the IC50 came out at 0.43 ± 0.027 µM in test [1], 1.12 ± 0.3 µM in test [2] and 0.52 ± 0.095 µM in test [3]. Besides, the inhibition at 10 µM was determined as 48% in test [1], 36% in test [2] and 83% in test [3].

Turning to `COc1ccc(OC)c(-n2nnc(C(=O)Nc3cc(OCCCCNc4cccc5c4CN(C4CCC(=O)NC4=O)C5=O)cc(C(C)(C)C)c3)c2C)c1` (centres unmarked) [Compound M14, N-(3-(tert-butyl)-5-(4-((2-(2,6-dioxopiperidin-3-yl)-1-oxoisoindolin-4-yl)amino)butoxy)phenyl)-1-(2,5-dimethoxyphenyl)-5-methyl-1H-1,2,3-triazole-4-carboxamide], the IC50 in test [1] was determined as 0.13 ± 0.051 µM; in test [2], 0.43 ± 0.14 µM; in test [3], 1.86 ± 0.53 µM. Also, the inhibition at 10 µM is 22% in test [1], 94% in test [2] and 82% in test [3].

Turning to `COc1ccc(OC)c(-n2nnc(C(=O)Nc3cc(OCCCCCCCCOc4cccc5c4C(=O)N(C4CCC(=O)NC4=O)C5=O)cc(C(C)(C)C)c3)c2C)c1` (centres unmarked) [Compound M16, N-(3-(tert-butyl)-5-((8-((2-(2,6-dioxopiperidin-3-yl)-1,3-dioxoisoindolin-4-yl)oxy)octyl)oxy)phenyl)-1-(2,5-dimethoxyphenyl)-5-methyl-1H-1,2,3-triazole-4-carboxamide], in test [3], the inhibition at 10 µM was determined as 57% and the IC50 amounted to 2.02 ± 0.47 µM.

As to `COc1ccc(OC)c(-n2nnc(C(=O)Nc3cc(C(C)(C)C)ccc3OCCOCCOCCOCCOCCOCCOc3cccc4c3C(=O)N(C3CCC(=O)NC3=O)C4=O)c2C)c1` (centres unmarked) [Compound M20, N-(5-(tert-butyl)-2-((17-((2-(2,6-dioxopiperidin-3-yl)-1,3-dioxoisoindolin-4-yl)oxy)-3,6,9,12,15-pentaoxaheptadecyl)oxy)phenyl)-1-(2,5-dimethoxyphenyl)-5-methyl-1H-1,2,3-triazole-4-carboxamide], the IC50 in test [1] was found to be 4.9 ± 0.8 µM; in test [3], 6.33 ± 0.74 µM. Also, the inhibition at 10 µM is 64% in test [1] and 58% in test [3].

`COc1ccc(OC)c(-n2nnc(C(=O)Nc3cc(NC(=O)CCCNC(=O)COc4cccc5c4C(=O)N(C4CCC(=O)NC4=O)C5=O)cc(C(C)(C)C)c3)c2C)c1` (centres unmarked) [Compound M15, N-(3-(tert-butyl)-5-(4-(2-((2-(2,6-dioxopiperidin-3-yl)-1,3-dioxoisoindolin-4-yl)oxy)acetamido)butanamido)phenyl)-1-(2,5-dimethoxyphenyl)-5-methyl-1H-1,2,3-triazole-4-carboxamide]: in test [1], the IC50 is 2.19 ± 1.35 µM and the inhibition at 10 µM worked out at 30%.

For the compound `COc1ccc(OC)c(-n2nnc(C(=O)Nc3cc(NC(=O)COCCOCCOCCOCCNc4cccc5c4C(=O)N(C4CCC(=O)NC4=O)C5=O)cc(C(C)(C)C)c3)c2C)c1` (centres unmarked) [Compound M17, N-(3-(tert-butyl)-5-(14-((2-(2,6-dioxopiperidin-3-yl)-1,3-dioxoisoindolin-4-yl)amino)-3,6,9,12-tetraoxatetradecanamido)phenyl)-1-(2,5-dimethoxyphenyl)-5-methyl-1H-1,2,3-triazole-4-carboxamide], in test [2], the inhibition at 10 µM was found to be 84% and the IC50 was 1.98 ± 0.25 µM. The inhibition at 10 µM in test [3] amounted to 70%.

As to `COc1ccc(OC)c(-n2nnc(C(=O)Nc3cc(C(C)(C)C)ccc3OCCCCCCCCOc3cccc4c3C(=O)N(C3CCC(=O)NC3=O)C4=O)c2C)c1` (centres unmarked) [Compound M19, N-(5-(tert-butyl)-2-((8-((2-(2,6-dioxopiperidin-3-yl)-1,3-dioxoisoindolin-4-yl)oxy)octyl)oxy)phenyl)-1-(2,5-dimethoxyphenyl)-5-methyl-1H-1,2,3-triazole-4-carboxamide], in test [3], the inhibition at 10 µM is 30% and the IC50 amounted to 2.52 ± 1.38 µM.

`COc1ccc(OC)c(-n2nnc(C(=O)Nc3cc(OCCCCCCCCN4C(=O)CCC(N5Cc6c(N)cccc6C5=O)C4=O)cc(C(C)(C)C)c3)c2C)c1` (centres unmarked) [Compound N6, N-(3-((8-(3-(4-amino-1-oxoisoindolin-2-yl)-2,6-dioxopiperidin-1-yl)octyl)oxy)-5-(tert-butyl)phenyl)-1-(2,5-dimethoxyphenyl)-5-methyl-1H-1,2,3-triazole-4-carboxamide]: in test [3], the inhibition at 10 µM stood at 11% and the IC50 was found to be 6.51 ± 0.71 µM.

Take `COc1ccc(OC)c(-n2nnc(C(=O)Nc3cc(C(C)(C)C)ccc3OCCOCCOCCOCCN3C(=O)CCC(N4Cc5c(N)cccc5C4=O)C3=O)c2C)c1` (centres unmarked) [Compound N2, N-(2-(2-(2-(2-(2-(3-(4-amino-1-oxoisoindolin-2-yl)-2,6-dioxopiperidin-1-yl)ethoxy)ethoxy)ethoxy)ethoxy)-5-(tert-butyl)phenyl)-1-(2,5-dimethoxyphenyl)-5-methyl-1H-1,2,3-triazole-4-carboxamide]: in test [1], the IC50 stood at 7.23 ± 4.88 µM and the inhibition at 10 µM came out at 27%. Also, in test [3], the inhibition at 10 µM was found to be 32% and the IC50 worked out at 5 ± 1.16 µM.

Turning to `COc1ccc(OC)c(-n2nnc(C(=O)Nc3cc(Nc4cccc5c4C(=O)N(C4CCC(=O)NC4=O)C5=O)cc(C(C)(C)C)c3)c2C)c1` (centres unmarked) [Compound M5, N-(3-(tert-butyl)-5-((2-(2,6-dioxopiperidin-3-yl)-1,3-dioxoisoindolin-4-yl)amino)phenyl)-1-(2,5-dimethoxyphenyl)-5-methyl-1H-1,2,3-triazole-4-carboxamide], the IC50 is 0.083 ± 0.0041 µM in test [1], 0.0078 ± 0.002 µM in test [2] and 0.052 ± 0.0066 µM in test [3]. Also, the figures for the inhibition at 10 µM in test [1], in test [2] and in test [3] were 69%, 141% and 107%, respectively.

Regarding `COc1ccc(OC)c(-n2nnc(C(=O)Oc3cccc4c3C(=O)N(C3CCC(=O)NC3=O)C4=O)c2C)c1` (centres unmarked) [Compound M2, 2-(2,6-dioxopiperidin-3-yl)-1,3-dioxoisoindolin-4-yl 1-(2,5-dimethoxyphenyl)-5-methyl-1H-1,2,3-triazole-4-carboxylate], in test [1], the IC50 is 2.69 ± 1.33 µM and the inhibition at 10 µM came out at 46%.

Take `COc1ccc(OC)c(-n2nnc(C(=O)Nc3cc(C(C)(C)C)ccc3OCCCCNc3cccc4c3CN(C3CCC(=O)NC3=O)C4=O)c2C)c1` (centres unmarked) [Compound M13, N-(5-(tert-butyl)-2-(4-((2-(2,6-dioxopiperidin-3-yl)-1-oxoisoindolin-4-yl)amino)butoxy)phenyl)-1-(2,5-dimethoxyphenyl)-5-methyl-1H-1,2,3-triazole-4-carboxamide]: in test [3], the inhibition at 10 µM came to 40% and the IC50 came to 41 ± 5.3 µM.

As to `COc1ccc(OC)c(-n2nnc(C(=O)Nc3cc(OCCCCN4C(=O)CCC(N5Cc6c(N)cccc6C5=O)C4=O)cc(C(C)(C)C)c3)c2C)c1` (centres unmarked) [Compound N4, N-(3-(4-(3-(4-amino-1-oxoisoindolin-2-yl)-2,6-dioxopiperidin-1-yl)butoxy)-5-(tert-butyl)phenyl)-1-(2,5-dimethoxyphenyl)-5-methyl-1H-1,2,3-triazole-4-carboxamide], the IC50 worked out at 0.087 ± 0.022 µM in test [1], 0.044 ± 0.008 µM in test [2] and 0.17 ± 0.0045 µM in test [3]. Also, the results for the inhibition at 10 µM in test [1], in test [2] and in test [3] were 37%, 97% and 103%, respectively.
